Results reported in US4963570A, “1-(acetylaminophenyl)-2-aminopropanone derivatives and pharmaceutical compositions thereof” (Laboratoire L. Lafon, priority 1983, dated 1990).
“Also recorded” adds a separate entry of the source. Structures can show the parent of a compound that is named as a salt.

Tests used:
[1] = tested on: mice; test: interaction with reserpine; assay type: in vivo, mouse; details: i.p.
Experimental: Four hours after the intraperitoneal injection of 2.5 mg/kg of reserpine, groups of 6 mice receive CRL 41 224.

[2] = tested on: mice; test: interaction with apomorphine in mice; assay type: in vivo, mouse; details: i.p.
Experimental: Groups of 6 mice receive CRL 41 224 0.5 hour before the subcutaneous injection of 1 or 16 mg/kg of apomorphine.

[3] = tested on: peripheral α-adrenergic stimulation; test: signs of peripheral adrenergic stimulation; assay type: in vivo, mouse; rat; details: i.p.; dose not stated
Experimental: (§1) Groups of three animals are observed before and then 0.25 hour, 0.50 hour, 1 hour, 2 hours, 3 hours and 24 hours after the administration of CRL 41 224.

[4] = tested on: rats; test: interaction with apomorphine in rats; assay type: in vivo, rat; details: i.p., dose not stated
Experimental: CRL 41 224 is administered to groups of 6 rats 0.5 hour before the subcutaneous injection of 0.5 mg/kg of apomorphine.

[5] = tested on: rats; test: action on stereotypies in rats (α-methyltyrosine, haloperidol, reserpine); details: for suppression of induced stereotype movements by prior injection of alpha-methyltyrosine: i.p.
[6] = tested on: mice; test: motility reduced by habituation to the enclosure; assay type: in vivo, mouse; details: i.p.
Experimental: After they have stayed in the actimeters for 18 hours, the mice (6 per dose, 12 control animals) receive CRL 41 224. They are immediately returned to their respective enclosures and, half an hour later, their motility is recorded for 30 minutes.

[7] = tested on: rats; test: overall behavior and reactivities in rats; assay type: in vivo, rat; details: i.p., dose not stated
Experimental: as §1

[8] = tested on: mice; test: four plate test, traction and electric shock; assay type: in vivo, mouse; details: i.p.
Experimental: The test is performed on groups of 10 mice 30 minutes after the administration of CRL 41 224.

[9] = tested on: mice; test: action on the behavioral despair; assay type: in vivo, mouse; details: i.p.; for period of immobility or "despair": dose not stated
Excerpt: Half an hour after they have received CRL 41 224, groups of 6 mice are placed in a beaker filled with water to a height of 6 cm. The total period of immobility between the 2nd and 6th minutes following immersion is noted.

[10] = tested on: mice; test: interaction with barbital; assay type: in vivo, mouse; details: i.p.; dose not stated
Experimental: Half an hour after the administration of CRL 41 224, groups of 10 mice receive an intraperitoneal injection of barbital (220 mg/kg).

[11] = tested on: mice; test: toxicity to grouped mice compared with isolated mice; assay type: in vivo, mouse
[12] = tested on: mice; test: motility reduced by hypoxic aggression; assay type: in vivo, mouse; details: i.p.; for motor recovery after hypoxic aggression: dose not stated
Experimental: Half an hour after they have received CRL 41 224, the mice (10 per dose, 20 control animals) are subjected to acute hypobaric anoxia [pressure reduction of 600 mm Hg (i.e. about 8×10^4 Pa) in 90 seconds; release of vacuum in 45 seconds] and are then placed in an actimeter, where their motility is recorded for 10 minutes.

[13] = tested on: mice; test: overall behavior and reactivities in mice; assay type: in vivo, mouse; details: i.p.; for excitation in mice: dose not stated
Experimental: as §1

[14] = tested on: CNS; test: overall neuropsychopharmacological (CNS) profile; assay type: in vivo, mouse; rat; details: i.p.
Experimental: The neuropsychopharmacological study of CRL 41 219 was carried out as indicated above for CRL 41 224.
The neuropsychopharmacological study of CRL 41 220 was carried out in accordance with the procedures given above for CRL 41 224.

[15] = tested on: mice; test: action on the spontaneous motility (actimeter); assay type: in vivo, mouse; details: mice, i.p.; dose not stated
Experimental: 0.5 hour after they have received CRL 41 224, the mice (6 per dose, 12 control animals) are placed in an actimeter, where their motility is recorded for 30 minutes.

[16] = tested on: rats; test: interaction with amphetamine; assay type: in vivo, rat; details: i.p.
Experimental: Amphetamine (2 mg/kg) is injected intraperitoneally into groups of 6 rats 30 minutes after the administration of CRL 41 224.

[17] = tested on: mice; test: interaction with oxotremorine; assay type: in vivo, mouse; details: i.p.
Experimental: CRL 41 224 is administered to groups of 6 mice 0.5 hour before the intraperitoneal injection of 0.5 mg/kg of oxotremorine.

[18] = tested on: immunological properties; test: immunological properties, overall; assay type: in vivo; details: dose not stated
Excerpt: The present 1-(acetylaminophenyl)-2-aminopropanone derivatives are useful in therapy. They all act on the CNS, more precisely as antidepressants. They have a stimulant or excitant component in their neuropsychopharmacological profile.

[19] = tested on: male mice; test: acute toxicity, intraperitoneal (lethal doses); assay type: in vivo, mouse; details: i.p.
Experimental: By intraperitoneal administration to male mice, the LD-30 (lethal dose for 30% of the animals tested) is of the order of 128 mg/kg and the LD-50 is of the order of about 200 mg/kg.

[20] = tested on: delayed hypersensitivity to the red blood corpuscles of sheep; test: delayed hypersensitivity to the red blood corpuscles of sheep (Miller); assay type: in vivo
[21] = tested on: spleen cells expressing a direct IgM antibody response; test: test for cells forming lysis areas (PFC IgM, Cunningham); assay type: in vivo, mouse; details: 0.1, 10 and 100 mg/kg
Experimental: Immunological assays were carried out in order to point out the interest of CRL 41 240 as an immunomodulating agent. Specifically, the test used was the so-called test for cells forming lysis areas, described by A. J. […] et al. ("Further improvements in the plaque technique for detecting simple antibody forming cells"), Immunology 14, pages 599-601 (1968).
The test for cells forming lysis areas (or PFC IgM) explores the humoral immunity. Four days after immunization with a T-dependent antigen (in this case red blood corpuscles of sheep), the spleen cells expressing a direct IgM antibody response are counted. The mice used for this purpose are conventional female OF1 mice devoid of specific pathogenic organisms, weighing from 20 to 30 g and divided up into a control group of 14 animals and groups each containing 7 animals per dose and per product to be studied, administered orally on the same day as the antigen. An activity index I is calculated for each dose of product according to the following equation: [formula]
This test is performed at least twice for each dose of test product [C(control amimals), 0.01, 0.1, 10 and 100 mg/kg] and a statistical study is undertaken using the Student t test after variance analysis on the number of lyses per spleen.

[22] = tested on: male mice; details: reference stimulant agents; cited from earlier work

CCCNC(C)C(=O)c1ccc(NC(C)=O)cc1 (stereo not shown) [CRL 41 212]
hypothermia induced by reserpine ([1]; dose not stated): antagonism of the hypothermia induced by apomorphine, oxotremorine or reserpine
ptosis induced by reserpine ([1]; dose not stated): antagonism of the ptosis induced by reserpine
hypothermia induced by apomorphine ([2]; dose not stated): antagonism of the hypothermia induced by apomorphine
exophthalmos [3]: absent
mydriasis [3]: mydriasis
peripheral adrenergic stimulation, overall [3]: effects which may reflect peripheral adrenergic stimulation
salivation [3]: absent
stereotypies induced by apomorphine [4]: potentiation of the stereotypies induced by apomorphine
suppression of induced stereotype movements by prior injection of alpha-methyltyrosine [5]: not suppressed
motor activity after habituation to the enclosure ([6]; dose not stated): a resumption in the motor activity of mice accustomed to their enclosure
stereotype movements in rats [7]: stereotype movements in rats
convulsant effects of electric shock ([8]; dose not stated): anticonvulsant effects
period of immobility or "despair" [9]: a reduction in the immobility
sleep induced by barbital [10]: antagonism of the sleep induced by barbital
toxicity to grouped mice compared with isolated mice [11]: do not increase the toxicity to grouped mice
motor recovery after hypoxic aggression [12]: an improvement in the motor recovery in mice after acute hypoxia
excitation in mice [13]: excitation with hyperreactivity in mice
overall action on the CNS ([14]; mice and rats, dose not stated): stimulant effects; also recorded: antidepressant effects
spontaneous motility / motor activity [15]: an increase in the spontaneous motility in mice
stereotypies induced by amphetamine ([16]; rats, dose not stated): potentiation of the stereotypies induced by apomorphine or amphetamine
hypothermia induced by oxotremorine ([17]; dose not stated): antagonism of the hypothermia induced by apomorphine, oxotremorine
trembling caused by oxotremorine ([17]; dose not stated): antagonism of the trembling caused by oxotremorine

CNC(C)C(=O)c1ccc(NC(C)=O)cc1 (stereo not shown) [CRL 41 217]
hypothermia induced by reserpine ([1]; dose not stated): antagonism of the hypothermia induced by apomorphine, oxotremorine or reserpine
ptosis induced by reserpine ([1]; dose not stated): antagonism of the ptosis induced by reserpine
hypothermia induced by apomorphine ([2]; dose not stated): antagonism of the hypothermia induced by apomorphine
exophthalmos [3]: absent
mydriasis [3]: mydriasis
peripheral adrenergic stimulation, overall [3]: effects which may reflect peripheral adrenergic stimulation
salivation [3]: absent
stereotypies induced by apomorphine [4]: potentiation of the stereotypies induced by apomorphine
suppression of induced stereotype movements by prior injection of alpha-methyltyrosine [5]: not suppressed
motor activity after habituation to the enclosure ([6]; dose not stated): a resumption in the motor activity of mice accustomed to their enclosure
stereotype movements in rats [7]: stereotype movements in rats
convulsant effects of electric shock ([8]; dose not stated): potentiate the convulsant effects of electric shock
period of immobility or "despair" [9]: a reduction in the immobility
sleep induced by barbital [10]: antagonism of the sleep induced by barbital
toxicity to grouped mice compared with isolated mice [11]: do not increase the toxicity to grouped mice
motor recovery after hypoxic aggression [12]: an improvement in the motor recovery in mice after acute hypoxia
excitation in mice [13]: excitation with hyperreactivity in mice
overall action on the CNS ([14]; mice and rats, dose not stated): stimulant effects; also recorded: antidepressant effects
spontaneous motility / motor activity [15]: an increase in the spontaneous motility in mice
stereotypies induced by amphetamine ([16]; rats, dose not stated): potentiation of the stereotypies induced by apomorphine or amphetamine
hypothermia induced by oxotremorine ([17]; dose not stated): antagonism of the hypothermia induced by apomorphine, oxotremorine
trembling caused by oxotremorine ([17]; dose not stated): antagonism of the trembling caused by oxotremorine

CC(=O)Nc1ccc(C(=O)C(C)N2CCSCC2)cc1 (stereo not shown) [CRL 41 247]
hypothermia induced by reserpine ([1]; strong doses): no antagonism towards the hypothermia induced by reserpine
hypothermia induced by apomorphine ([2]; strong doses): very moderate antagonism of the hypothermia induced by apomorphine
motor activity after habituation to the enclosure ([6]; strong doses): an increase in the motor activity of mice after habituation to their enclosure
convulsant effects of electric shock ([8]; strong/high dose): a reduction in the convulsant effects of electric shock
period of immobility of mice forcibly immersed ([9]; strong/high doses): a reduction in the period of immobility
motor activity after acute hypoxia ([12]; strong doses): an increase in the motor activity of mice after habituation to their enclosure and after acute hypoxia
hypothermia, temperature change ([13]; 256 mg/kg, 30 minutes after administration): -3.3 °C
body temperature (hypothermia) ([13]; strong/high doses): hypothermia
overall action on the CNS ([14]; strong/high doses): discreet antidepressant effects; also recorded: stimulant effects
stereotypies induced by amphetamine ([16]; strong doses): potentiation of the stereotypies induced by amphetamine
hypothermia induced by oxotremorine ([17]; strong/high doses): very moderate antagonism of the hypothermia induced by apomorphine and oxotremorine
immunological properties, overall [18]: beneficial immunomodulating effects
LD-0 (maximum non-lethal dose) [19]: greater than 512 mg/kg
LD-60 [19]: about 1000 mg/kg
cell activity (technique of Miller et al.) ([20]; dose not stated): stimulates cell activity

CC(=O)Nc1cccc(C(=O)C(C)N2CCCCC2)c1 (stereo not shown) [CRL 41 262, 1-(3-acetylaminophenyl)-2-piperidinopropanone hydrochloride]
immunostimulant activity, PFC IgM test [21]: immunostimulant activity
overall action on the CNS ([14]; mice and rats, dose not stated): antidepressant and stimulant effects on the CNS
immunological properties, overall ([18]; hydrochloride): beneficial immunomodulating effects; also recorded: particularly valuable as an immunomodulator
immunostimulant activity, delayed hypersensitivity ([20]; oral, 10 and 100 mg/kg): immunostimulant activity

CC(N)Cc1ccccc1 (stereo not shown) [amphetamine, reference compound]
motor effects with I.V.C. administration of noradrenaline [22]: potentialized by I.V.C. administration of noradrenaline
effect of haloperidol on induced stereotypies ([5]; haloperidol 0.25 mg/kg i.p. 0.5 h before): almost totally prevents the appearance of stereotypies
effect of haloperidol on induced stereotypies ([5]; haloperidol 0.5 mg/kg i.p. 0.5 h before): totally inhibits the said stereotypies

COC(=O)[C@H]1[C@@H](OC(=O)c2ccccc2)C[C@@H]2CC[C@H]1N2C [cocaine]
motor effects with I.V.C. administration of noradrenaline [22]: potentialized by I.V.C. administration of noradrenaline

COC(=O)C(c1ccccc1)C1CCCCN1 (stereo not shown) [methylphenidate, reference compound]
motor effects with I.V.C. administration of noradrenaline [22]: potentialized by I.V.C. administration of noradrenaline
effect of reserpine on induced stereotypies ([5]; reserpine 4 mg/kg i.p. 24 hours before): only a moderate reduction of the stereotypies

CN1Cc2c(N)cccc2C(c2ccccc2)C1 (stereo not shown) [nomifensine]
motor effects with I.V.C. administration of noradrenaline [22]: potentialized by I.V.C. administration of noradrenaline
